Where a SMILES comes first, the peptide text is derived from it. Bridges are numbered along the chain shown (N, C = ends). [ ]: non-standard residue; d: D form. The star is where a group is joined. hPhe(3-Cl-4-CF3) = N[C@@H](CCc1ccc(C(F)(F)F)c(Cl)c1)C(=O)O; NPrPhe(4-CF3) = CCCN[C@@H](Cc1ccc(C(F)(F)F)cc1)C(=O)O; Piperazinyl(4-(3-oxetanyl)) = C1OCC1N1CCN(*)CC1; Abu(4,4,4-F3) = N[C@@H](CC(F)(F)F)C(=O)O; NMeGly(cPent) = CN[C@H](C(=O)O)C1CCCC1; Pro(4,4-F2) = O=C(O)[C@@H]1CC(F)(F)CN1; NMeD = CN[C@@H](CC(=O)O)C(=O)O; NMeL = CN[C@@H](CC(C)C)C(=O)O; Morpholide = C1CN(*)CCO1; NMeA = CN[C@@H](C)C(=O)O; Ac5c = NC1(C(=O)O)CCCC1; Aze = O=C(O)[C@@H]1CCN1; Ac4c = NC1(C(=O)O)CCC1; Sar = CNCC(=O)O
How the values were obtained:
[1] = biological target: GDP-bound NRAS wild-type protein (Homo sapiens, UniProt P01111); test: Binding to NRAS by surface plasmon resonance (SPR), KD and KD ratio to KRAS
In short: (§1)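 GDP-bound biotin-Avi RAS captured at ~100–300 RU, 30°C, pH 7.4 HBS containing 10 µM GDP, 10 mM MgCl2, 1 mM DTT, 0.01% Tween 20 and 4% DMSO. KD by 1:1 fitting.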

[2] = system: human lung cancer strain NCI-H441; type: cell-based
In short: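 Readout: […] after the ATP-based reagent. Compound: serial dilutions in dimethyl sulfoxide.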

HRAS wild-type protein = HRAS wild-type protein (Homo sapiens, UniProt P01112); test: Binding to HRAS by surface plasmon resonance (SPR), KD and KD ratio to KRAS
In short: as §1

[3] = ratio of the KD value with respect to GDP-bound NRAS wild-type protein to the KD value with respect to KRAS
[4] = ratio of the KD value with respect to HRAS wild-type protein to the KD value with respect to KRAS
[5] = ratio of KD for GDP-bound NRAS wild-type protein to KD for KRAS
[6] = ratio of KD for HRAS wild-type protein to KD for KRAS

HRAS wild-type protein, sequence (P01112 whole entry): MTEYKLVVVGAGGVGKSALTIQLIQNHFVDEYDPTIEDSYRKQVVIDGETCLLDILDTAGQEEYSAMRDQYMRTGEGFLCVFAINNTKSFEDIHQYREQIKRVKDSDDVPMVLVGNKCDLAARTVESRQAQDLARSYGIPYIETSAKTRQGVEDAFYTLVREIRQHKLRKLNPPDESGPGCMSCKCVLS
GDP-bound NRAS wild-type protein, sequence (P01111 whole entry): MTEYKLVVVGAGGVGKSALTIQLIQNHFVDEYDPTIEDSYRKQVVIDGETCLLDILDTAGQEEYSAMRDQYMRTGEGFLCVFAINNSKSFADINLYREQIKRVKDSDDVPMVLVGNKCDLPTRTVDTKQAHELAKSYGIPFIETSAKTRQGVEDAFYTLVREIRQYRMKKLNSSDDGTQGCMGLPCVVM

Row | Compound | NRAS /KRAS [1, 3] | IC50 [2] | HRAS /KRAS (HRAS wild-type protein; [4]) | NRAS /KRAS [1, 5] | HRAS /KRAS (HRAS wild-type protein; [6]) | NRAS /KRAS ([1]; ratio of KD value for GDP-bound NRAS wild-type protein to KD value for KRAS (SPR)) | HRAS /KRAS (HRAS wild-type protein; ratio of KD value for HRAS wild-type protein to KD value for KRAS (SPR))
1 | CCCN1C(=O)CN(C)C(=O)CN(C)C(=O)[C@H]([C@@H](C)CC)NC(=O)[C@H](CC(C)C)N(C)C(=O)C[C@@H](C(=O)N(C)C)N(C)C(=O)[C@H](C2CCCC2)N(C)C(=O)C2(CCC2)NC(=O)[C@@H]2CCCN2C(=O)[C@H](CCc2ccc(C(F)(F)F)c(Cl)c2)NC(=O)CN(C)C(=O)[C@@H]1Cc1ccc(C(F)(F)F)cc1 [PP0412] ([NMeL]I[Sar][Sar][NPrPhe(4-CF3)][Sar][hPhe(3-Cl-4-CF3)]P[Ac4c][NMeGly(cPent)][NMeD]-NMe2; lactam N-11) | B (a compound having 3 or more and less than 10 is denoted as B) | 0.0018 µM | C (A compound having a KD ratio of 0.1 or more and less than 3 is denoted as C) |  |  |  | 
2 | CCCN1C(=O)CN(C)C(=O)CNC(=O)[C@H]([C@@H](C)CC)NC(=O)[C@H](CC(C)C)N(C)C(=O)C[C@@H](C(=O)N2CCOCC2)NC(=O)[C@H](C2CCCC2)N(C)C(=O)C2(CCC2)NC(=O)[C@@H]2CC(F)(F)CN2C(=O)[C@H](CCc2ccc(C(F)(F)F)c(Cl)c2)NC(=O)CN(C)C(=O)[C@@H]1Cc1ccc(C(F)(F)F)cc1 [PP0328] ([NMeL]IG[Sar][NPrPhe(4-CF3)][Sar][hPhe(3-Cl-4-CF3)][Pro(4,4-F2)][Ac4c][NMeGly(cPent)]D-Morpholide; lactam N-11) |  | 0.243 µM |  | B (a compound having 3 or more and less than 10 is denoted as B) | B (a compound having 3 or more and less than 10 is denoted as B) |  | 
3 | CCCN(C)C(=O)[C@@H]1CC(=O)N(C)[C@@H](CCOC)C(=O)N[C@@H]([C@@H](C)CC)C(=O)N(C)CC(=O)N(C)[C@H]2C/C=C\CCN(C2=O)[C@@H](Cc2ccc(C(F)(F)F)cc2)C(=O)N(C)CC(=O)N[C@@H](CCc2ccc(C(F)(F)F)c(OC)c2)C(=O)N2C[C@@H](C)C[C@H]2C(=O)NC2(CC(C)(C)C2)C(=O)N(C)[C@@H](C2CCCC2)C(=O)N1C [PP2001] | A (a compound having 10 or more and less than 20 is denoted as A) | 0.0181 µM | A (a compound having 10 or more and less than 20 is denoted as A) |  |  |  | 
4 | CCC[C@H]1C(=O)N[C@@H]([C@@H](C)CC)C(=O)N(C)CC(=O)N(C)[C@H]2C/C=C\CCN(C2=O)[C@@H](Cc2ccc(C(F)(F)F)cc2)C(=O)N(C)CC(=O)N[C@@H](CCc2ccc(C(F)(F)F)c(OC)c2)C(=O)N2CC[C@H]2C(=O)NC2(CC(C)(C)C2)C(=O)N(C)[C@@H](C(CC)CC)C(=O)N(C)[C@H](C(=O)N(C)C)CC(=O)N1C [PP2936] |  | 0.187 µM |  | AA (a compound having 20 or more is denoted as AA) | A (a compound having 10 or more and less than 20 is denoted as A) |  | 
5 | CCC[C@H]1C(=O)N[C@@H]([C@@H](C)CC)C(=O)N2CCC[C@H]2C(=O)N(C)[C@H]2C/C=C\CCN(C2=O)[C@@H](Cc2ccc(C(F)(F)F)cc2)C(=O)N(C)CC(=O)N[C@@H](CCc2cc(F)c(C(F)(F)F)c(F)c2)C(=O)N2C[C@H](OCC)C[C@H]2C(=O)N(C)C2(CCC2)C(=O)N(C)[C@@H](C2CCCC2)C(=O)N(C)[C@H](C(=O)N2CCCC2)CC(=O)N1C [PP3116] |  | 0.0078 µM |  | A (a compound having 10 or more and less than 20 is denoted as A) | A (a compound having 10 or more and less than 20 is denoted as A) |  | 
6 | CCCN1C(=O)CN(C)C(=O)CN(C)C(=O)[C@H]([C@@H](C)CC)NC(=O)[C@H](CC(C)C)N(C)C(=O)C[C@@H](C(=O)N2CCN(C3COC3)CC2)N(C)C(=O)[C@H](C2CCCC2)N(C)C(=O)C2(CCCC2)NC(=O)[C@@H]2CCCN2C(=O)[C@H](CCc2ccc(C(F)(F)F)c(Cl)c2)NC(=O)CN(C)C(=O)[C@@H]1Cc1ccc(C(F)(F)F)cc1 [PP0175] ([NMeL]I[Sar][Sar][NPrPhe(4-CF3)][Sar][hPhe(3-Cl-4-CF3)]P[Ac5c][NMeGly(cPent)][NMeD]-{Piperazinyl(4-(3-oxetanyl))}; lactam N-11) |  | 0.0066 µM |  | B (a compound having 3 or more and less than 10 is denoted as B) | B (a compound having 3 or more and less than 10 is denoted as B) |  | 
7 | CCO[C@@H]1C[C@H]2C(=O)NC3(CC(C)(C)C3)C(=O)N(C)[C@@H](C(CC)CC)C(=O)N(C)[C@H](C(=O)N(C)C)CC(=O)N(C)[C@@H](CC3CCC3)C(=O)N[C@@H]([C@@H](C)CC)C(=O)N(C)CC(=O)N(C)[C@H]3C/C=C\CCN(C3=O)[C@@H](Cc3ccc(C(F)(F)F)cc3)C(=O)N(C)CC(=O)N[C@@H](CCc3ccc(C(F)(F)F)c(OC)c3)C(=O)N2C1 [PP2164] | A (a compound having 10 or more and less than 20 is denoted as A) | 0.0142 µM | A (a compound having 10 or more and less than 20 is denoted as A) |  |  |  | 
8 | CCCN(C)C(=O)[C@@H]1CC(=O)N(C)[C@@H](CC(C)C)C(=O)N[C@@H]([C@@H](C)OC)C(=O)N(C)CC(=O)N(C)[C@H]2C/C=C\CCN(C2=O)[C@@H](Cc2ccc(C(F)(F)F)cc2)C(=O)N(C)CC(=O)N[C@@H](CCc2cc(F)c(C(F)(F)F)c(F)c2)C(=O)N2C[C@H](OCC)C[C@H]2C(=O)NC2(CC(C)(C)C2)C(=O)N(C)[C@@H](C2CCCC2)C(=O)N1C [PP1917] | A (a compound having 10 or more and less than 20 is denoted as A) | 0.0225 µM | A (a compound having 10 or more and less than 20 is denoted as A) |  |  |  | 
9 | CCO[C@@H]1C[C@H]2C(=O)NC3(CCC3)C(=O)N(C)[C@@H](C3CCCC3)C(=O)N(C)[C@H](C(=O)N(C)CC)CC(=O)N(C)[C@@H](CC)C(=O)N[C@@H]([C@@H](C)CC)C(=O)N(C)CC(=O)N(C)[C@H]3C/C=C\CCN(C3=O)[C@@H](Cc3ccc(C)cc3)C(=O)N(C)CC(=O)N[C@@H](CCc3ccc(C(F)(F)F)c(OC)c3)C(=O)N2C1 [PP1869] |  | 0.0364 µM |  |  |  | A (a compound having 10 or more and less than 20 is denoted as A) | A (a compound having 10 or more and less than 20 is denoted as A)
10 | CCO[C@@H]1C[C@H]2C(=O)NC3(CCC3)C(=O)N(C)[C@@H](C3CCCC3)C(=O)N(C)[C@H](C(=O)N(C)C)CC(=O)N(C)[C@@H](Cc3ccc(Cl)cc3)C(=O)N[C@@H]([C@@H](C)CC)C(=O)N(C)CC(=O)N(C)[C@H]3CCCCCN(C3=O)[C@@H](Cc3ccc(C(F)(F)F)cc3)C(=O)N(C)CC(=O)N[C@@H](CCc3cc(F)c(C(F)(F)F)c(F)c3)C(=O)N2C1 [PP0940] |  | 0.11 µM |  | B (a compound having 3 or more and less than 10 is denoted as B) | C (A compound having a KD ratio of 0.1 or more and less than 3 is denoted as C) |  | 
11 | CCCN1C(=O)[C@@H]2CCN2C(=O)[C@H](C)N(C)C(=O)[C@H](CC(F)(F)F)NC(=O)[C@H](CC(C)C)N(C)C(=O)C[C@@H](C(=O)N2CCOCC2)N(C)C(=O)[C@H](C2CCCC2)N(C)C(=O)C2(CCCC2)NC(=O)[C@@H]2CCCN2C(=O)[C@H](CCc2ccc(C(F)(F)F)c(Cl)c2)NC(=O)CN(C)C(=O)[C@@H]1Cc1ccc(C(F)(F)F)cc1 [PP0270] ([NMeL][Abu(4,4,4-F3)][NMeA][Aze][NPrPhe(4-CF3)][Sar][hPhe(3-Cl-4-CF3)]P[Ac5c][NMeGly(cPent)][NMeD]-Morpholide; lactam N-11) |  | 0.0085 µM |  | C (A compound having a KD ratio of 0.1 or more and less than 3 is denoted as C) | B (a compound having 3 or more and less than 10 is denoted as B) |  | 
12 | CCCN1C(=O)[C@@H]2CCN2C(=O)[C@H](C)N(C)C(=O)[C@H]([C@@H](C)CC)NC(=O)[C@H](CC(C)C)N(C)C(=O)C[C@@H](C(=O)N(C)C)N(C)C(=O)[C@H](C2CCCC2)N(C)C(=O)C2(CCCC2)NC(=O)[C@@H]2CC(F)(F)CN2C(=O)[C@H](CCc2ccc(C(F)(F)F)c(Cl)c2)NC(=O)CN(C)C(=O)[C@@H]1Cc1ccc(C(F)(F)F)cc1 [PP0436] ([NMeL]I[NMeA][Aze][NPrPhe(4-CF3)][Sar][hPhe(3-Cl-4-CF3)][Pro(4,4-F2)][Ac5c][NMeGly(cPent)][NMeD]-NMe2; lactam N-11) | C (A compound having a KD ratio of 0.1 or more and less than 3 is denoted as C) | 0.001 µM | C (A compound having a KD ratio of 0.1 or more and less than 3 is denoted as C) |  |  |  | 
13 | CCO[C@@H]1C[C@H]2C(=O)NC3(CCC3)C(=O)N(C)[C@@H](C3CCCC3)C(=O)N(C)[C@H](C(=O)N(C)C)CC(=O)N(C)[C@@H](COC)C(=O)N[C@@H]([C@@H](C)CC)C(=O)N(C)CC(=O)N(C)[C@H]3CCCCN(C3=O)[C@@H](Cc3ccc(C(F)(F)F)cc3)C(=O)N(C)CC(=O)N[C@@H](CCc3cc(F)c(C(F)(F)F)c(F)c3)C(=O)N2C1 [PP0704] | C (A compound having a KD ratio of 0.1 or more and less than 3 is denoted as C) | 0.0114 µM | C (A compound having a KD ratio of 0.1 or more and less than 3 is denoted as C) |  |  |  | 
14 | CCO[C@@H]1C[C@H]2C(=O)NC3(CCC3)C(=O)N(C)[C@@H](C3CCCC3)C(=O)N(C)[C@H](C(=O)N(C)C)CC(=O)N(C)[C@@H](CC)C(=O)N[C@@H]([C@@H](C)CC)C(=O)N3C[C@H](OCC)C[C@H]3C(=O)N(C)[C@H]3C/C=C\CCN(C3=O)[C@@H](Cc3ccc(C(F)(F)F)cc3)C(=O)N(C)CC(=O)N[C@@H](CCc3cc(F)c(C(F)(F)F)c(F)c3)C(=O)N2C1 [PP1057] |  | 0.0969 µM |  | A (a compound having 10 or more and less than 20 is denoted as A) | B (a compound having 3 or more and less than 10 is denoted as B) |  | 

— EP4603105A1, “PHARMACEUTICAL COMPOSITION CONTAINING CYCLIC COMPOUND HAVING SELECTIVE KRAS INHIBITORY EFFECT AGAINST HRAS AND NRAS” (CHUGAI SEIYAKU KABUSHIKI KAISHA, priority 2022, dated 2024)
